Measurements taken from patent publication US8329420B2, “Screening method for a substance that binds to an intracellular region of TLR4” (Hiroshima University, priority 2006, dated 2012).

How the values were obtained:
[1] = target: T1, TLR4 (wild-type and point mutants, TLR4 C747A) (Homo sapiens, UniProt O00206, C747A); assay: NF-κB luciferase reporter assay in HEK293 cells expressing wild-type or mutant TLR4 after LPS stimulation; assay type: cell-based; design: expressed in transfected cells; host or cells: HEK293 (human embryonic kidney); conditions: 0, 30, 100, 300 nmol/L, 2 hr, then LPS 100 ng/mL 4 hr; HEK293; FL/RL ratio; only this mutant (FIG. 3)
Method: (§1) Human embryonic kidney-derived HEK293 was suspended in DMEM containing 10% FCS, plated in a 96 well plate at 2×10^4 cells/well and cultured overnight at 37° C., 5% CO2. The medium was changed to OPTI-MEM (Invitrogen, 50 μL/well) immediately before transfection. A plasmid encoding FLAG-TLR4WT or a mutant thereof (0CA-3CA, PH, 1KR-9KR) was added to 0.5 ng/well, and transfection was performed using a PLUS reagent (Invitrogen) or a LipofectAMINE reagent (Invitrogen) according to a conventional method. The cells were cultured at 37° C., 5% CO2 for 3 hr. After culture, DMEM containing 20% FCS was added to 100 μL/well, and the cells were further cultured overnight to give forced expression cells. As common DNAs, pNiFty (plasmid for NF-κB activation measurement, 15 ng/well), phRL-TK (internal standard plasmid, 15 ng/well), MD-2 plasmid (10 ng/well) and CD14 plasmid (10 ng/well) were transfected together with wild-type TLR4 and each mutant.
(§2) The next day of the transfection, the medium of the forced expression cells was changed to DMEM containing 1% FCS, compound A (ethyl (6R)-6-[N-(2-chloro-4-fluorophenyl)sulfamoyl]-1-cyclohexene-1-carboxylate), compound B (d-ethyl 6-[N-(2,4-difluorophenyl)sulfamoyl]-1-cyclohexene-1-carboxylate), compound C (ethyl 6-[N-(2-bromo-4-fluorophenyl)sulfamoyl]-1-cyclohexene-1-carboxylate), compound D (d-ethyl 6-[(2-chloro-4-fluorobenzyl)sulfonyl]-1-cyclohexene-1-carboxylate) were added to the final concentration of 0, 30, 100, 300 nmol/L and the cells were cultured for 2 hr at 37° C., 5% CO2. LPS was added to 100 ng/mL, and the cells were further cultured for 4 hr. After culture, the luminescence of luciferase was measured using Dual-Glo™ Luciferase Assay System (Promega). For the measurement, the luminescence of firefly luciferase (derived from FL, NF-κB activation) and renilla luciferase (RL, internal standard) was measured, and CPS (counts per second) of FL was amended by CPS of RL to give FL/RL ratio.

[2] = target: T2, TLR4 (wild-type and point mutants, TLR4 C747A) (Homo sapiens, UniProt O00206); assay: as above; assay type: cell-based; design: expressed in transfected cells; host or cells: HEK293 (human embryonic kidney); conditions: concluded from reporter assay with TLR4 mutants, HEK293 (FIG. 3)
Method: as §1, §2

GST-TIRAP fusion protein = target: T3, GST-TIRAP fusion protein (Homo sapiens, UniProt P58753); assay: Pull-down of GST fusion protein-bound beads with ^3H-compound A, SDS-PAGE, autoradiography; assay type: binding; conditions: beads reacted at 4° C. overnight; autoradiography (FIG. 1B)
T3 construct: made in house; host or cells: Escherichia coli
Method: (§3) Using the above-mentioned primer DNA and TAKARA Ex Taq and after first standing at 95° C. for 2 min in a thermal cycler, PCR was performed 30 cycles with 95° C. for 30 sec, at 55° C. for 30 sec and at 72° C. for 1 min as one cycle. Lastly, an elongation reaction was performed at 72° C. for 10 min. The amplified DNA fragment was cloned using a TA Cloning Kit (Invitrogen). The obtained plasmid vector was treated with a restriction enzyme and electrophoresed on agarose gel. The band was cleaved out using a Sephaglas B and Prep Kit (Amersham) and purified. This was inserted as an insert into vector plasmid pGEX-4T-1 (Amersham) using DNA ligation kit Ver.2 (TAKARA).
(§4) Escherichia coli was transformed with the completed plasmid, and cultured in LB medium containing ampicillin (10 mL) at 37° C. for 18 hr. Culture medium (2.4 mL) was inoculated to LB medium containing ampicillin (130 mL), and subjected to shaking culture. When OD600 became amount 0.9, isopropyl-β-D-thiogalactopyranoside (1 mol/L) was added (130 μL), and the mixture was cultivated at 30° C. for 4 hr. After cultivation, the cells were collected and 10 mL of Lysis Buffer (10 mmol/L Tris pH 7.5, […], 0.5% triton-X-100, 1 mmolp/L PMSF) was added. The cells were disrupted by ultrasonication and centrifuged. To the obtained supernatant was added Glutathione Sepharose 4B (Amersham, 300 μL), and the mixture was gently shaken at 4° C. for 60 min. After the reaction, GST fusion protein-bound beads were washed with TBS (Tris buffered saline, 50 mM Tris-HCl pH7.5, 150 mM NaCl) added with 0.1% Triton X-100.
(§5) The completed GST fusion protein-bound beads and ^3H-compound A (synthesized by Amersham) were reacted at 4° C. overnight. After the reaction, the beads were washed with 0.1% Triton X-100 added TBS, a sample buffer for 5% 2-mercaptoethanol (ME)-containing sodium dodecyl sulfate (SDS)-polyacrylamide gel electrophoresis (PAGE) was added, and the mixture was heated at 100° C. for 5-10 min. The mixture was centrifuged, the supernatant was separated as a labeled protein sample, and the protein was separated by SDS-PAGE. […]

[3] = target: T4, GST-TLR4 intracellular TIR domain fusion protein (Homo sapiens, UniProt O00206); assay: as above; assay type: binding; conditions: beads reacted at 4° C. overnight; autoradiography (FIG. 1B)
T4 construct: made in house; host or cells: Escherichia coli
T4 sequence (O00206 674-839): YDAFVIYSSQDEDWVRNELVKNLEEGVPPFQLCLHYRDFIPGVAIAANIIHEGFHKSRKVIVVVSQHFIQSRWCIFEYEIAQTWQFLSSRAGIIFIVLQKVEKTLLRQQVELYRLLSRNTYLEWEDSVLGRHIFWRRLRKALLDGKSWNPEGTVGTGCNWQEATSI
Method: as §3, §4, §5

[4] = target: T5, GST-TLR2 intracellular TIR domain fusion protein (Homo sapiens, UniProt O60603); assay: as above; assay type: binding; conditions: beads reacted at 4° C. overnight; autoradiography (FIG. 1B)
T5 construct: GST and TIR domain of TLR2; made in house; host or cells: Escherichia coli
Method: as §3, §4, §5

[5] = target: T1, TLR4 (wild-type and point mutants, TLR4 C747A); assay: Binding of ^3H-compound A to FLAG-TLR4 wild-type and point mutants expressed in COS-7 cells (anti-FLAG immunoprecipitation, autoradiography); design: expressed in transfected cells; conditions: 100 nmol/L, 6 hr, COS-7 cells; only this mutant among 1CA-4CA, PH, 1KR-9KR (FIG. 2)
Source text: (§6) cDNA encoding TLR4 was obtained by a conventional method using PCR, and incorporated into expression vector pEFBos. Each point mutant was produced using QuikChange II Site-directed Mutagenesis Kit (manufactured by Stratagene). A mismatch corresponding to a mutation was introduced into both ends of a primer according to the manual of the kit. The produced primers are as follows (mutant introduction sites are underlined). Thereafter, a mutant was produced according to the manual and a competent cell was transformed therewith. Single colonies were picked up, a plasmid was prepared according to a conventional method and DNA sequence was confirmed to give a plasmid containing each mutant TLR4.
(§7) Escherichia coli was transformed with the produced plasmids, about 500-700 μg thereof was each purified using EndoFree (R) Plasmid Maxi Kit (Quiagen). […]
(§8) The immunoprecipitated was applied to SDS-PAGE to separate the protein, and the gel after migration was immersed in a blotting buffer for 15 min to remove SDS. […] The luminescence of the band was photographed on an X ray film, Kodak Biomax-MS, and the protein expression level was confirmed (FIG. 2; the upper panel). The photographed PVDF membrane was washed with PBS-T, photosensitized on imaging plate TR-2040 for 7 days, and the amount of ^3H bound to the expressed protein was measured using BAS-2500 (FUJIFILM Corporation).

[6] = target: T2, TLR4 (wild-type and point mutants, TLR4 C747A); assay: as above; design: expressed in transfected cells; conditions: concluded from mutant binding, COS-7 cells (FIG. 2)
Source text: as §6, §7, §8

T1 sequence (O00206 24-839 C747A): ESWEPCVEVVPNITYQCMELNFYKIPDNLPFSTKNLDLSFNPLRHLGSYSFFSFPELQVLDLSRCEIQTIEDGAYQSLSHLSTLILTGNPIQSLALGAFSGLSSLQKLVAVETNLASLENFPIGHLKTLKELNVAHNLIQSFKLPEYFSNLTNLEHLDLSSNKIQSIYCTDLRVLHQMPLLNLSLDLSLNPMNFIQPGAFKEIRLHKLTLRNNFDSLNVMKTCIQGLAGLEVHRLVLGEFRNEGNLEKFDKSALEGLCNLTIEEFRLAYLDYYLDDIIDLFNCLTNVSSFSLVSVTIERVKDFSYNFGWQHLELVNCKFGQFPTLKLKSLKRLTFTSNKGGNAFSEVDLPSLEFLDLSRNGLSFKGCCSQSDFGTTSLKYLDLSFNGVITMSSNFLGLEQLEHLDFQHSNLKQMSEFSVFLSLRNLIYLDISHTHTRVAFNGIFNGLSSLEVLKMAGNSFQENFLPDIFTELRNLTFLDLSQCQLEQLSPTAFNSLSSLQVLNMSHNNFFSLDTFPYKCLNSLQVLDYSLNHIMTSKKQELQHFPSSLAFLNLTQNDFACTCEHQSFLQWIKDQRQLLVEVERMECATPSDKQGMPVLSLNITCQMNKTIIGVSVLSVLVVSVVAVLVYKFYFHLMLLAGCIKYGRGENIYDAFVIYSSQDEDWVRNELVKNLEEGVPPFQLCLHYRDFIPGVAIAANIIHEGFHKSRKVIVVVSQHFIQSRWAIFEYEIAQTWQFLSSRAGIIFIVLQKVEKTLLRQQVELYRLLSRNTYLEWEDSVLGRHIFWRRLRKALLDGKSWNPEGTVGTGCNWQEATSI
T2 sequence (O00206 24-839 C747A): as above
T3 sequence (P58753 1-235 isoform P58753-2): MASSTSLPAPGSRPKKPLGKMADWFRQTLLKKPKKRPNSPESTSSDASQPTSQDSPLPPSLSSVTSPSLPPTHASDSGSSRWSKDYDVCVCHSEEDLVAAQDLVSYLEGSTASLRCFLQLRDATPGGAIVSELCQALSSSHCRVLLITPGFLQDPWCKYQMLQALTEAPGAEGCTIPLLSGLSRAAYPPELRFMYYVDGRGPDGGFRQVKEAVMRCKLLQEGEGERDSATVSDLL
T5 sequence (O60603 639-782 limits assumed): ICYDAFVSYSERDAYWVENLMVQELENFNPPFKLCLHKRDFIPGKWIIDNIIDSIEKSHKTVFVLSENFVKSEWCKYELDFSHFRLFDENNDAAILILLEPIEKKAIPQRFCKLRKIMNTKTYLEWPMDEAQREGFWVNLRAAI

signal suppressing action when 747th cysteine of TLR4 mutated to alanine [1]	binding site in TLR4 through which the signal is suppressed [2]	binding of ^3H-compound A to GST-TIRAP fusion protein (GST-TIRAP fusion protein)	binding of ^3H-compound A to GST-TLR4 intracellular TIR domain fusion protein [3]	binding of ^3H-compound A to GST-TLR2 intracellular TIR domain fusion protein [4]	binding amount of ^3H-compound A to TLR4 with 747th cysteine mutated to alanine [5]	binding site of compound A in TLR4 [6]	Structure (SMILES)
disappeared	selectively bind to the 747th cysteine						CCOC(=O)C1=CCCCC1S(=O)(=O)Nc1ccc(F)cc1Br (stereo not shown) [compound C, ethyl 6-[N-(2-bromo-4-fluorophenyl)sulfamoyl]-1-cyclohexene-1-carboxylate]
disappeared	selectively bind to the 747th cysteine	not bound	selectively bound	not bound	remarkably decreased	selectively bound to the 747th cysteine	CCOC(=O)C1=CCCC[C@H]1S(=O)(=O)Nc1ccc(F)cc1Cl [compound A, ethyl (6R)-6-[N-(2-chloro-4-fluorophenyl)sulfamoyl]-1-cyclohexene-1-carboxylate]
disappeared	selectively bind to the 747th cysteine						CCOC(=O)C1=CCCCC1S(=O)(=O)Cc1ccc(F)cc1Cl (stereo not drawn) [compound D, d-ethyl 6-[(2-chloro-4-fluorobenzyl)sulfonyl]-1-cyclohexene-1-carboxylate]
disappeared	selectively bind to the 747th cysteine						CCOC(=O)C1=CCCCC1S(=O)(=O)Nc1ccc(F)cc1F (stereo not drawn) [compound B, d-ethyl 6-[N-(2,4-difluorophenyl)sulfamoyl]-1-cyclohexene-1-carboxylate]
